How the values were obtained:
[1] = tested on: Rattus norvegicus; assay: Decrease in alcohol intake in rat model of voluntary heavy drinking assessed as decrease in operant alcohol self-administration at 500 uM, icv administered twice relative to control; assay type: functional; parameters: scale not given: the % may be the effect or the level left
[2] = Half life in human at 2 mg/m2 dosed twice a week; assay type: ADME, organism-based; conditions: in vivo
[3] = Lipophilicity, log D of the compound at pH 7.4; assay type: physicochemical; conditions: buffer
[4] = tested on: Rattus norvegicus; assay: Decrease in alcohol intake in rat model of voluntary heavy drinking assessed as decrease in motivation to consume alcohol at 500 uM, icv administered twice relative to control; assay type: functional; parameters: scale not given: the % may be the effect or the level left
[5] = Half life in human at 6 mg/m2, po; assay type: ADME
[6] = tested on: Brain; assay: Drug uptake in iv dosed rat brain after 90 mins by PET imaging method relative to control; assay type: ADME, organism-based; conditions: in vivo, 1.5 h
[7] = Lipophilicity, log P of the compound at pH 7.4; assay type: physicochemical; conditions: buffer
[8] = tested on: Brain; assay: Drug uptake in iv dosed baboon brain after 90 mins by PET imaging method relative to control; assay type: ADME, organism-based; conditions: papio anubis, in vivo, 1.5 h
[9] = tested on: Rattus norvegicus; assay: Decrease in alcohol intake in rat model of voluntary heavy drinking assessed as decrease in relapse phenomenon after period of abstinence at 500 uM, icv administered twice relative to control; assay type: functional; parameters: scale not given: the % may be the effect or the level left
[10] = tested on: Rattus norvegicus; assay: Decrease in alcohol intake in rat assessed as ethanol intake at 2 mg/kg, ip administered daily during last 3 days of 10 day period of two-bottel choice paradigm (reference value: 7 g/kg); assay type: functional
[11] = molecular target: T1, Histone deacetylase 7 (Homo sapiens, UniProt Q8WUI4); assay: Inhibition of human recombinant N-terminal GST-tagged HDAC7 expressed in baculovirus infected insect cells preincubated for 2 hrs followed by Fluor-de-Lys substrate addition measured after 30 mins by fluorescence assay; assay type: cell-based
T1 sequence (Q8WUI4 whole entry): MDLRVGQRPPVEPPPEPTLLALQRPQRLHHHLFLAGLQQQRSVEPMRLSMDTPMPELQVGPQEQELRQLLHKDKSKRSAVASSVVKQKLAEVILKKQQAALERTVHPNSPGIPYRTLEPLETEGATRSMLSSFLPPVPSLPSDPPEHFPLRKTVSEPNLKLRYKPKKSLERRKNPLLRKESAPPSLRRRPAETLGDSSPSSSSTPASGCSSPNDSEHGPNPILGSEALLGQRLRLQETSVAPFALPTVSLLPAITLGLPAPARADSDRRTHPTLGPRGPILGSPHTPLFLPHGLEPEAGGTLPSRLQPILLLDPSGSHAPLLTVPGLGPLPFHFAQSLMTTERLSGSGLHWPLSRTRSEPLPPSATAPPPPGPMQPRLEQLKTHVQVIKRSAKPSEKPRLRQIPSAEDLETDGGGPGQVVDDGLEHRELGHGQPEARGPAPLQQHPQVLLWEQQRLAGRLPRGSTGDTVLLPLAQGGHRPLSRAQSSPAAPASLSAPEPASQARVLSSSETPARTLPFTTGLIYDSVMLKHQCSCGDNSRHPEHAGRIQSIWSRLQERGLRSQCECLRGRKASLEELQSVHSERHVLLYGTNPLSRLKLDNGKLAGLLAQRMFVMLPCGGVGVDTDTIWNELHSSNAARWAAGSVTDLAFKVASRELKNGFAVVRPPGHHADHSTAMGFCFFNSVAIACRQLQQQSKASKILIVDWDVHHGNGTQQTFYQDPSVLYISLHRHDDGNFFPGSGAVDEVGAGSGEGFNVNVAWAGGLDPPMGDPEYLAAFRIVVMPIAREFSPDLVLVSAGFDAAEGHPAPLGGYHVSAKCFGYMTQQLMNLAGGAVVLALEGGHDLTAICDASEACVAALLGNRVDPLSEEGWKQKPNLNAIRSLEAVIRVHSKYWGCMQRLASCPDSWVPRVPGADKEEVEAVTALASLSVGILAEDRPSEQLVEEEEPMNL

[12] = molecular target: Histone deacetylase 2 (Homo sapiens, UniProt Q92769); assay: Inhibition of human full length C-terminal FLAG-tagged HDAC2 expressed in baculovirus infected Sf9 insect cells preincubated for 2 hrs followed by Fluor-de-Lys substrate addition measured after 30 mins by fluorescence assay; assay type: cell-based
Chain of Histone deacetylase 2 (Q92769 whole entry): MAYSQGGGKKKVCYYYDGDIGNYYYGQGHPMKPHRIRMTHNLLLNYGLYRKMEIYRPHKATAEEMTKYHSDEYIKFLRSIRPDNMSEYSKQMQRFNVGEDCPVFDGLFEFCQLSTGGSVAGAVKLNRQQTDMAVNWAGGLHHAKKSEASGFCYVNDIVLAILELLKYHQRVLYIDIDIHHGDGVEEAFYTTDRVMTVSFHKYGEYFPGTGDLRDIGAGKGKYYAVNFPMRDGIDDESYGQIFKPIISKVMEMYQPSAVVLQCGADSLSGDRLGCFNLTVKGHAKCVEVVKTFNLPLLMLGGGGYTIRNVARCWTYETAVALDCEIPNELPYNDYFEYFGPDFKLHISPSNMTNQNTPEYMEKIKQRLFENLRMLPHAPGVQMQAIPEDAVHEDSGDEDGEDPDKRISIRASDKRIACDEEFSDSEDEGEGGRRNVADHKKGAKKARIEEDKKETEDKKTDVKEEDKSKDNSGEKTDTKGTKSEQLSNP

[13] = molecular target: Histone deacetylase 3/Nuclear receptor corepressor 2 (HDAC3/NCoR2) (Homo sapiens, UniProt O15379); assay: Inhibition of human full length C-terminal His-tagged HDAC3/N-terminal GST-tagged human NCOR2 co-expressed in baculovirus infected Sf9 insect cells preincubated for 2 hrs followed by Fluor-de-Lys substrate addition measured after 30 mins by fluorescence assay; assay type: cell-based
[14] = molecular target: T2, Histone deacetylase 8 (Homo sapiens, UniProt Q9BY41); assay: Inhibition of HDAC8 (unknown origin) preincubated for 2 hrs followed by Fluor-de-Lys substrate addition measured after 30 mins by fluorescence assay
T2 sequence (Q9BY41 whole entry): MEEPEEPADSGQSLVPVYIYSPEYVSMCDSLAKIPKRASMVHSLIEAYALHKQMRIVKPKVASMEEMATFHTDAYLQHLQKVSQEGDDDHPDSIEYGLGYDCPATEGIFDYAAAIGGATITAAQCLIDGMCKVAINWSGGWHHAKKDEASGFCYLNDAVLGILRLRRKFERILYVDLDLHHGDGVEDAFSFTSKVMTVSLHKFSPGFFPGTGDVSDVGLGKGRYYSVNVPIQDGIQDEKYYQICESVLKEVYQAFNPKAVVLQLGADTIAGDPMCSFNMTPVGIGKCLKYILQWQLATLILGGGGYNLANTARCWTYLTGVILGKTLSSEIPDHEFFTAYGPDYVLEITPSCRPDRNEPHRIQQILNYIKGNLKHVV

[15] = molecular target: Histone deacetylase 4 (Homo sapiens, UniProt P56524); assay: Inhibition of human recombinant N-terminal GST-tagged/C-terminal His-tagged HDAC4 expressed in baculovirus infected insect cells preincubated for 2 hrs followed by Fluor-de-Lys substrate addition measured after 30 mins by fluorescence assay; assay type: cell-based
Chain of Histone deacetylase 4 (P56524 whole entry): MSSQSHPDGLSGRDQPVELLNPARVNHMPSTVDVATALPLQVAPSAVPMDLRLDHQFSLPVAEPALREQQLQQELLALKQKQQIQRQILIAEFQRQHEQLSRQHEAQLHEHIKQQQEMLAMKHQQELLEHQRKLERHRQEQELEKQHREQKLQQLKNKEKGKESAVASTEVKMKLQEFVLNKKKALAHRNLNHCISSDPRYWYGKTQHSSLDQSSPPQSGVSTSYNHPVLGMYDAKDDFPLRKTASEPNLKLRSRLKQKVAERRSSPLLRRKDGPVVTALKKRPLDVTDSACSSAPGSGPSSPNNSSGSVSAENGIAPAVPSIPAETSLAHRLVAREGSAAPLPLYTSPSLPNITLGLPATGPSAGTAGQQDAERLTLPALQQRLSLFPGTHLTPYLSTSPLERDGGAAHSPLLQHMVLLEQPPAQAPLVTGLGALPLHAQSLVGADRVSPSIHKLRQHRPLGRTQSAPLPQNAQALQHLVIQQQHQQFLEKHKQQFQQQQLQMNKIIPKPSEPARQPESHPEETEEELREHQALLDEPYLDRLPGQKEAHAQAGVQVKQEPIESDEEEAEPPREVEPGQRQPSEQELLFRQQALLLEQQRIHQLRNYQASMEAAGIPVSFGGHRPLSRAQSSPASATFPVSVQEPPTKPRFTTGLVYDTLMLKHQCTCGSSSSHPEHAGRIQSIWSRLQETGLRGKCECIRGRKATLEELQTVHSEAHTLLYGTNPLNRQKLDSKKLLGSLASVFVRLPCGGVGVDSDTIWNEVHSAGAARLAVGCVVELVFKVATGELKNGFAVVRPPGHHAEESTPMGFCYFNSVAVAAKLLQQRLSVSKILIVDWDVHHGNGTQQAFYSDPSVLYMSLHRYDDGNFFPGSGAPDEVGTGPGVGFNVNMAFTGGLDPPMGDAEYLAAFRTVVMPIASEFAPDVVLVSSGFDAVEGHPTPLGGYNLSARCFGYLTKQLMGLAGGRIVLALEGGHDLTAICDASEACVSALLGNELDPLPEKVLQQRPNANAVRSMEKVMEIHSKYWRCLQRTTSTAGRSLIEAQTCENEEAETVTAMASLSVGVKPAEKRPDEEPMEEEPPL

[16] = molecular target: Histone deacetylase 5 (Homo sapiens, UniProt Q9UQL6); assay: Inhibition of human recombinant C-terminal His-tagged HDAC5 expressed in baculovirus infected insect cells preincubated for 2 hrs followed by Fluor-de-Lys substrate addition measured after 30 mins by fluorescence assay; assay type: cell-based
Chain of Histone deacetylase 5 (Q9UQL6 whole entry): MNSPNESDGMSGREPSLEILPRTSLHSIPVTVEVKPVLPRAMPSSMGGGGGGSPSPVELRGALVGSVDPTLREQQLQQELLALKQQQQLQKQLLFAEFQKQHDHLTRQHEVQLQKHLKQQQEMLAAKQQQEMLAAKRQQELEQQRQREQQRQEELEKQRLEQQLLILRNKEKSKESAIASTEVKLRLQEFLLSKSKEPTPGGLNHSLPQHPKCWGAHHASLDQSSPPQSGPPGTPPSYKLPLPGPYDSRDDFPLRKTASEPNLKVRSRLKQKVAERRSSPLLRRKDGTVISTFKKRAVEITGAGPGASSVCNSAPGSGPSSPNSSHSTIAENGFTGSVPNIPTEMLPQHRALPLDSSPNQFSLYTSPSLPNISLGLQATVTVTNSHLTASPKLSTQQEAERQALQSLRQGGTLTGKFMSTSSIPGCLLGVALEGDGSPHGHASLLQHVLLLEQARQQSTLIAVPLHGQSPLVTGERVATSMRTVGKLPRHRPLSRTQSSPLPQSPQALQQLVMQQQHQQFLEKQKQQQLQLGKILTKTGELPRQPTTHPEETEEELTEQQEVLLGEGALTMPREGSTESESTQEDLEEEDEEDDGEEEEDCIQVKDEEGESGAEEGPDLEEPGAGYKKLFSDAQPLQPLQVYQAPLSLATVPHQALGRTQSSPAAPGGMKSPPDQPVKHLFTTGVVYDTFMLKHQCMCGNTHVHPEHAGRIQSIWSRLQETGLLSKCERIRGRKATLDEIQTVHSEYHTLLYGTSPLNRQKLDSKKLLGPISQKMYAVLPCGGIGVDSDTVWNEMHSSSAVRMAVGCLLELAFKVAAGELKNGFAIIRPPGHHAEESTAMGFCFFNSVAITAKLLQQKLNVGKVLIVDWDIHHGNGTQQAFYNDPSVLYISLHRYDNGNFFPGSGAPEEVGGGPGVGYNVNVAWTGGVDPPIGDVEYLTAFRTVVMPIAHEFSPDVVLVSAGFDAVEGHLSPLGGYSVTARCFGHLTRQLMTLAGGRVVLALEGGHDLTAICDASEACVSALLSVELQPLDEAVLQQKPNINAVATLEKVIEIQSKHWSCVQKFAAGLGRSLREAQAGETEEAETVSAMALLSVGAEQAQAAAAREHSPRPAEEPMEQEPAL

[17] = molecular target: Histone deacetylase 1 (Homo sapiens, UniProt Q13547); assay: Inhibition of human full length C-terminal His/FLAG-tagged HDAC1 expressed in baculovirus infected Sf9 insect cells preincubated for 2 hrs followed by Fluor-de-Lys substrate addition measured after 30 mins by fluorescence assay; assay type: cell-based
Chain of Histone deacetylase 1 (Q13547 whole entry): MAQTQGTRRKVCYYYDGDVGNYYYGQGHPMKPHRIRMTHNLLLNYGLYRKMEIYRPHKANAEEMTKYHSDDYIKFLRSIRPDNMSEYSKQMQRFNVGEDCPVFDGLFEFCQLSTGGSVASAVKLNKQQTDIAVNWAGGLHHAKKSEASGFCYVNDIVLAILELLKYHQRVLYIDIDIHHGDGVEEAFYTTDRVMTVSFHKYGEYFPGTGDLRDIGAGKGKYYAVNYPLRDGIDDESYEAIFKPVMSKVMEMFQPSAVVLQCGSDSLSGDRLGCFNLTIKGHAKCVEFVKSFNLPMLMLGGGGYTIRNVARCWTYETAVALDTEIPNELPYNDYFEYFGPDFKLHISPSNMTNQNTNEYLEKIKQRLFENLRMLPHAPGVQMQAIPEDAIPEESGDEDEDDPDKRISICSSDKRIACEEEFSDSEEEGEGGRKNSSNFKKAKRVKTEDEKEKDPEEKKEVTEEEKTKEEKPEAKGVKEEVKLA

Nc1ccccc1NC(=O)c1ccc(CNC(=O)OCc2cccnc2)cc1 [ENTINOSTAT]
Activity [1]: 75% | half-life [2]: 52 to 150 h | logD [3]: 1.8 | Activity [4]: 25% | half-life [5]: 33.9 h | Drug uptake [6]: < 0.1% | logD [7]: 2.5 | Drug uptake [8]: < 0.001% | Activity [9]: 50%

CC(/C=C/C(=O)NO)=C\[C@@H](C)C(=O)c1ccc(N(C)C)cc1 [TRICHOSTATIN]
Activity [10]: <1 g/kg

Nc1ccccc1NC(=O)CCCCCC(=O)Nc1ccccc1
IC50 [11]: > 180 µM | IC50 [12]: 1.59 µM | IC50 [13]: 0.069 µM | IC50 [14]: 5 µM | IC50 [15]: > 180 µM | IC50 [16]: > 180 µM | IC50 [17]: 0.199 µM
